# Test results: patent US20250136606A1, “MODULATORS OF TRPML, THEIR COMPOSITIONS AND METHODS OF USE” (Caraway Therapeutics, Inc., priority 2021, published 2025)
# Read-outs that look alike come from different tables or passages of the source.
# Experiments:
# Type in all cases: cell-based
# TRPML3 = biological target: T1, TRPML3 (Homo sapiens, UniProt Q8TDD5); assay: Fluorescent TRPML3 assay (performed as for TRPML1, substituting the TRPML3 subtype)
# T1 construct: expressed in transfected cells
# T1 sequence (Q8TDD5 1-553): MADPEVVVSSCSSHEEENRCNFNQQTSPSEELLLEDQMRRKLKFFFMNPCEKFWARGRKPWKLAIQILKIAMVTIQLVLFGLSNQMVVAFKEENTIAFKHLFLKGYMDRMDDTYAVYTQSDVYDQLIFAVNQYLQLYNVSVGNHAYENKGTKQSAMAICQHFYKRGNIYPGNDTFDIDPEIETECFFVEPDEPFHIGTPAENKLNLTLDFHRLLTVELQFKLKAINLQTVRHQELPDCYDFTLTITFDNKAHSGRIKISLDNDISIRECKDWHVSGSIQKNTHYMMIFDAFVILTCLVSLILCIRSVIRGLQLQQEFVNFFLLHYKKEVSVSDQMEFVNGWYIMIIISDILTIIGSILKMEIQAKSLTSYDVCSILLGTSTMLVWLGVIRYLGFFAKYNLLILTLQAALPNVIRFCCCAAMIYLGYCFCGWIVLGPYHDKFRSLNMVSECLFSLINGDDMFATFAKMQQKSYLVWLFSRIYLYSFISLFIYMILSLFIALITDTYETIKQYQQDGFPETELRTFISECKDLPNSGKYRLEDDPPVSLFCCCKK
# Experimental: (§1) HEK-293 Trex cells were stably transfected with a construct consisting of the human coding sequence for TRPML1 cloned into the […] plasmid pCDNA5 T/O. Mutations were introduced into the TRPML1 sequence to facilitate expression on the cell surface (Silvia Vergarajauregui, Rosa Puertollano, Traffic. 2006 March; 7(3): 337-353). Briefly, the cells are cultured in 150 mm round tissue culture dishes containing 20 mL of media. The day before the assay the cells are rinsed with DPBS-Ca—Mg and then treated briefly with Trypsin-EDTA. The Trypsin-EDTA is diluted with growth media, and cells are counted. 38×10^6 cells are re-plated into 150 mm round tissue culture dishes in media containing 0.5 ug/mL doxycycline to induce expression of hTRPML1.
# (§2) The day of the experiment cells are lifted from the plates as above and collected by centrifugation. The cells are then suspended in dye loading buffer consisting of Ringer's solution supplemented with 0.1% Pluronic Acid and 1 micromolar Fluo4-AM dye. Cells are loaded for ˜60 minutes in the dark with occasional mixing. The cells are collected by centrifugation, the loading media aspirated, and the cells resuspended in 25 mL Ringer's solution and incubated ˜60 minutes in the dark. The cells are again collected by centrifugation, rinsed in Ringer's Solution and resuspended to […] in modified Ringer's solution containing 10 mM calcium.
# (§3) Compounds are dissolved to a concentration of 10 millimolar with DMSO. Compound plates are created by dispensing compounds into 384 well black wall clear bottom plates (Greiner 781091). Positive and negative controls are included on each plate. Typically, different amounts of each compound are tested ranging from 100 nanoMoles (20 micromolar final concentration) decreasing in half-log steps to 31 picoMoles (6 nanomolar final concentration). Each concentration is typically tested in triplicate.
# (§4) 50 microliters of dye-loaded cells are dispensed into each well of the compound assay plate created above. The fluorescence in each well is then determined with an excitation wavelength of 480 nm and an emission wavelength of 540 nm using either a Molecular Devices SpectraMax multimode plate reader or a Hamamatsu FDSS/uCell plate imager.
# (§5) The resulting fluorescence for each well is exported as an ascii file and loaded into our LIMS for analysis. The percent activity of each compound at each concentration is determined by comparison to the positive and negative control wells included in each plate.
# (§6) TRPML2 and TRPML3 Assays Assays for TRPML2 and TRPML3 were performed as above for TRPML1, by substituting the appropriate TRPML2 or TRPML3 subtype for the TRPML1.
# (§7) EC50 values were calculated using a non-linear regression of Prism. In the table, “A” indicates an EC50 of less than 100 nM, “B” indicates an EC50 range from 100 nM to 500 nM; “C” indicates an EC50 range from 500 nM to 2 μM; and “D” indicates an EC50 greater than 2 μM.
# TRPML1 = TRPML1 (Homo sapiens, UniProt Q9GZU1); assay: Fluorescent TRPML1 assay (Fluo4-AM calcium fluorescence in doxycycline-induced HEK-293 Trex cells)
# Summary of the method: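 HEK-293 Trex cells stably carrying human TRPML1 (surface-trafficking mutant) were induced overnight with 0.5 ug/mL doxycycline, loaded with 1 micromolar Fluo4-AM, and suspended in Ringer's with 10 mM calcium. Compounds at 20 micromolar to 6 nanomolar final, half-log steps, triplicate; fluorescence 480/540 nm gave percent activity versus controls and EC50 by non-linear regression.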
# TRPML2 = biological target: T2, TRPML2 (Homo sapiens, UniProt Q8IZK6); assay: Fluorescent TRPML2 assay (performed as for TRPML1, substituting the TRPML2 subtype)
# T2 construct: expressed in transfected cells
# T2 sequence (Q8IZK6 1-566): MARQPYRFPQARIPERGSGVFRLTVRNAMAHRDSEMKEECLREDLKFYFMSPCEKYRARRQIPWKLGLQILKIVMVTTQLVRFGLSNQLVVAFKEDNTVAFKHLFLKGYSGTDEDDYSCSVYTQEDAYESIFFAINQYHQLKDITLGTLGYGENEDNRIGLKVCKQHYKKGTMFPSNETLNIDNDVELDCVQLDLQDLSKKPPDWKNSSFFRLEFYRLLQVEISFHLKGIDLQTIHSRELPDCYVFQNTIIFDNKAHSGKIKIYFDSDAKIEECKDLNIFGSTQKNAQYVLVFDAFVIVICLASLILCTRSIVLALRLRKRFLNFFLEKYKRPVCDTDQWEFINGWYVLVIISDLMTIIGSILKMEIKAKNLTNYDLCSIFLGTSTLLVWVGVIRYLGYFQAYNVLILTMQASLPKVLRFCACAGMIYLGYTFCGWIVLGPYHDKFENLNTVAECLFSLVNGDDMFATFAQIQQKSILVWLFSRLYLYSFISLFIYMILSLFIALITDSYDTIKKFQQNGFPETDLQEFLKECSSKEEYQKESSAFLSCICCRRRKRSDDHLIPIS
# Experimental: as §1, §2, §3, §4, §5, §6, §7
# Sequence of TRPML1 (Q9GZU1 whole entry L15A/L16A/L577A/L578A, form open): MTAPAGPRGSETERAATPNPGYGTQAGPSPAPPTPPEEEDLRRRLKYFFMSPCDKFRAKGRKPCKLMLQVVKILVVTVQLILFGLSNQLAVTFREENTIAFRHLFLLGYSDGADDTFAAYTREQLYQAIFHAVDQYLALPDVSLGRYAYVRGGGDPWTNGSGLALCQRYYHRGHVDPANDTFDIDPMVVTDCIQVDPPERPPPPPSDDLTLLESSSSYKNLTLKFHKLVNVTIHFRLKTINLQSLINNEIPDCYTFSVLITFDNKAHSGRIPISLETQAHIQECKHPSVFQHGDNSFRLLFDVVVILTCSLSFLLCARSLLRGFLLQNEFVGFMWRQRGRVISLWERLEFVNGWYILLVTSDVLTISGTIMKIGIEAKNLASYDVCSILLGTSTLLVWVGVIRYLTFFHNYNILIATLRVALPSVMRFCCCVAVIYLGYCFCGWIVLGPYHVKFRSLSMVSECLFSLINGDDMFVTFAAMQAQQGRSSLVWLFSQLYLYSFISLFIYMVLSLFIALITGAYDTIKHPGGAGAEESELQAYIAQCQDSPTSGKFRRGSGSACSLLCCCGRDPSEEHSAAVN
Compound,EC50 (TRPML3),EC50 (TRPML1),EC50 (TRPML2),EC50 (TRPML3; fluorescent calcium assay),EC50 (TRPML1; fluorescent calcium assay),EC50 (TRPML2; fluorescent calcium assay)
"C[C@H]1CN(C(=O)OC(C)(C)C)CCN1c1nccc2c1c(C1CCC1)cn2-c1cccc(F)c1 [Compound 706, tert-butyl (S)-4-(3-cyclobutyl-1-(3-fluorophenyl)-1H-pyrrolo[3,2-c]pyridin-4-yl)-3-methylpiperazine-1-carboxylate]",100 to 500 nM,100 to 500 nM,500 to 2000 nM,–,–,–
"C[C@H]1CN(C(=O)OC(C)(C)C)CCN1c1ncnc2c1c(C1CC1)cn2-c1cccc(F)c1F [Compound 217, tert-butyl (S)-4-(5-cyclopropyl-7-(2,3-difluorophenyl)-7H-pyrrolo[2,3-d]pyrimidin-4-yl)-3-methylpiperazine-1-carboxylate]",–,–,–,100 to 500 nM,100 to 500 nM,500 to 2000 nM
"Cc1cn(-c2cccc(C#N)c2)c2ncnc(N3C[C@@H](C)N(C(=O)OC(C)(C)C)C[C@@H]3C)c12 [Compound 669, tert-butyl (2R,5S)-4-(7-(3-cyanophenyl)-5-methyl-7H-pyrrolo[2,3-d]pyrimidin-4-yl)-2,5-dimethylpiperazine-1-carboxylate]",< 100 nM,< 100 nM,500 to 2000 nM,–,–,–
"CC[C@H]1CN(c2ncnc3c2c(C2CC2)cn3-c2cc(F)cc(F)c2)CCN1C(=O)OC(C)(C)C [Compound 257, tert-Butyl (S)-4-(5-cyclopropyl-7-(3,5-difluorophenyl)-7H-pyrrolo[2,3-d]pyrimidin-4-yl)-2-ethylpiperazine-1-carboxylate]",–,–,–,100 to 500 nM,100 to 500 nM,500 to 2000 nM
"C[C@@H]1CN(c2ncnc3c2c(C2CC2)cn3-c2cccc(F)c2F)CCN1C(=O)OC(C)(C)C [Compound 205, tert-butyl (R)-4-(5-cyclopropyl-7-(2,3-difluorophenyl)-7H-pyrrolo[2,3-d]pyrimidin-4-yl)-2-methylpiperazine-1-carboxylate]",–,–,–,100 to 500 nM,100 to 500 nM,500 to 2000 nM
"C[C@@H]1CN(c2ncnc3c2c(C(F)F)cn3-c2cc(C#N)ccn2)[C@@H](C)CN1C(=O)OC(C)(C)C [Compound 520, tert-butyl (2R,5S)-4-(7-(4-cyanopyridin-2-yl)-5-(difluoromethyl)-7H-pyrrolo[2,3-d]pyrimidin-4-yl)-2,5-dimethylpiperazine-1-carboxylate]",< 100 nM,< 100 nM,100 to 500 nM,–,–,–
"C[C@H]1CN(c2ncnc3c2c(C2CC2)cn3-c2cc(F)cc(F)c2)CCN1C(=O)OC(C)(C)C [Compound 188, tert-Butyl (S)-4-(5-cyclopropyl-7-(3,5-difluorophenyl)-7H-pyrrolo[2,3-d]pyrimidin-4-yl)-2-methylpiperazine-1-carboxylate]",–,–,–,100 to 500 nM,100 to 500 nM,500 to 2000 nM
"COC(=O)N1CCN(c2ncnc3c2c(-c2ccccc2F)cn3-c2cc(C#N)ccn2)[C@@H](C)C1 [Compound 351, methyl (S)-4-(7-(4-cyanopyridin-2-yl)-5-(2-fluorophenyl)-7H-pyrrolo[2,3-d]pyrimidin-4-yl)-3-methylpiperazine-1-carboxylate]",–,–,–,–,< 100 nM,500 to 2000 nM
"C[C@H]1CN(C(=O)OC(C)(C)C)CCN1c1ncnc2c1c(-c1ccccc1)cn2-c1cc(C#N)ccn1 [Compound 320, tert-butyl (S)-4-(7-(4-cyanopyridin-2-yl)-5-phenyl-7H-pyrrolo[2,3-d]pyrimidin-4-yl)-3-methylpiperazine-1-carboxylate]",–,–,–,–,< 100 nM,100 to 500 nM
"Cc1cn(-c2cncc(C#N)c2)c2ncnc(N3CCN(C(=O)OC(C)(C)C)C[C@@H]3C)c12 [Compound 694, tert-butyl (S)-4-(7-(5-cyanopyridin-3-yl)-5-methyl-7H-pyrrolo[2,3-d]pyrimidin-4-yl)-3-methylpiperazine-1-carboxylate]",< 100 nM,100 to 500 nM,–,–,–,–
"CC(C)(C)OC(=O)N1CCN(c2ncnc3c2c(C2CC2)cn3-c2cc(F)cc(F)c2)C[C@@H]1C(F)F (single isomer, unassigned) [Compound 315]",–,–,–,500 to 2000 nM,500 to 2000 nM,–
"C[C@@H]1CN(c2ncnc3c2c(C(F)(F)F)cn3-c2cc(C#N)ccn2)[C@@H](C)CN1C(=O)OC1CC1 [Compound 515, cyclopropyl (2R,5S)-4-(7-(4-cyanopyridin-2-yl)-5-(trifluoromethyl)-7H-pyrrolo[2,3-d]pyrimidin-4-yl)-2,5-dimethylpiperazine-1-carboxylate]",< 100 nM,< 100 nM,–,–,–,–
"C[C@@H]1CN(c2ncnc3c2c(C(F)F)cn3-c2cc(F)ccn2)[C@@H](C)CN1C(=O)OC1(C)CC1 [Compound 611, 1-methylcyclopropyl (2R,5S)-4-(5-(difluoromethyl)-7-(4-fluoropyridin-2-yl)-7H-pyrrolo[2,3-d]pyrimidin-4-yl)-2,5-dimethylpiperazine-1-carboxylate]",100 to 500 nM,100 to 500 nM,–,–,–,–
"CC(C)OC(=O)N1CCN(c2ncnc3c2c(C2CC2)cn3-c2cc(C#N)ccn2)[C@@H](C)C1 [Compound 386, isopropyl (S)-4-(7-(4-cyanopyridin-2-yl)-5-cyclopropyl-7H-pyrrolo[2,3-d]pyrimidin-4-yl)-3-methylpiperazine-1-carboxylate]",–,–,–,100 to 500 nM,< 100 nM,–
"CC(C)(C)OC(=O)N1CC2(C1)CN(c1ncnc3c1c(C1CC1)cn3-c1cc(Cl)cc(Cl)c1)C2 [Compound 464, tert-butyl 6-(5-cyclopropyl-7-(3,5-dichlorophenyl)-7H-pyrrolo[2,3-d]pyrimidin-4-yl)-2,6-diazaspiro[3.3]heptane-2-carboxylate]",–,–,–,100 to 500 nM,500 to 2000 nM,–
"C[C@H]1CN(C(=O)OC(C)(C)C)CCN1c1ncnc2c1c(N1CCCC1)cn2C12CCC(CC1)CC2 [Compound 383, tert-butyl (S)-4-(7-(bicyclo[2.2.2]octan-1-yl)-5-(pyrrolidin-1-yl)-7H-pyrrolo[2,3-d]pyrimidin-4-yl)-3-methylpiperazine-1-carboxylate]",–,–,–,> 2000 nM,100 to 500 nM,–
"Cc1cn(-c2cncnc2)c2ncnc(N3C[C@@H](C)N(C(=O)OC(C)(C)C)C[C@@H]3C)c12 [Compound 674, tert-butyl (2R,5S)-2,5-dimethyl-4-(5-methyl-7-(pyrimidin-5-yl)-7H-pyrrolo[2,3-d]pyrimidin-4-yl)piperazine-1-carboxylate]",> 2000 nM,> 2000 nM,–,–,–,–
